Laboratory results: patent publication US20250161307A1, “PYRAZOLOPYRIMIDINES AS MODULATORS OF SPERMINE OXIDASE” (Janssen Pharmaceutica NV, priority 2022, published 2025)
Counter-ions that a name gives are not always drawn.

What was measured:
SMOX [1] = biological target: T1, SMOX (Homo sapiens (Human), UniProt Q9NWM0); test: Human SMOX assay (HyPerBlu chemiluminescent detection of hydrogen peroxide); format: biochemical; details: 2.5 nM full length hSMOX, spermine substrate, 1 h at room temperature, luminescence read; read-out: SMOx_IC50
In short: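 Full-length N-His human SMOX (2.5 nM, E. coli-expressed) was incubated 1 h at room temperature with 30 µM spermine, 11-point compound dilutions and 1.25% DMSO in pH 7.4 HEPES/NaCl/EGTA buffer. H2O2 was detected by HyPerBlu chemiluminescence after 30 min, and IC50 came from dose–response fits.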

hPAOX = hPAOX (Homo sapiens (Human), UniProt Q6QHF9); test: Human PAOX assay (HyPerBlu chemiluminescent detection of hydrogen peroxide); format: biochemical; details: 60 pM recombinant PAOX, 20 μM N-acetylspermine substrate
In short: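 His-tagged recombinant PAOX expressed in sf9 insect cells was used at 60 pM, with 20 μM N-acetylspermine as substrate. Hydrogen peroxide formed by the reaction was detected by chemiluminescence from a boronate probe (HyPerBlu). Inhibition appears as lower luminescence.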

SMOX [2] = biological target: T1, SMOX; test: Cellular Thermal Shift Assay (CETSA) with alphaLISA detection of intact SMOX in A549 cells; format: cell-based; details: 1 hour compound incubation at 37° C., heated to 55° C. for 5 minutes
From the text: The Cellular Thermal Shift Assay (CETSA) is a biophysical assay based on the principle of ligand-induced thermal stabilization of target proteins, meaning that a protein denaturing temperature will change upon ligand interaction. Thus, by heating samples (i.e. cells, ex vivo samples) to different temperatures, and quantifying conformationally intact proteins we can detect compound-protein interactions after compound treatment. CETSA allows direct monitoring of ligand binding to a specific target (target engagement). In our study, we have developed a suitable detection system that will detect intact SMOX using the alphaLISA. […] The detection of compound -SMOX ligand binding is performed using A549 cells. This adenocarcinoma human alveolar basal epithelial cell line expresses high levels of SMOX. Their use has been widely reported in the literature with respect to the investigation of the SMOX pathway. Using SMOX high-expressing cells with CETSA and alphaLISA systems provides the optimal platform for screening small molecules for SMOX inhibition.
A549 cells were seeded at a density of 0.05-0.1×10^6 cells/mL in T175 flasks and cultured in 25 mL of culture medium consisting in RPMI 1640 medium (Gibco) supplemented with 10% fetal bovine serum (Gibco). Cells were passaged twice per week and used for CETSA assays before reaching confluency. One day prior to the CETSA cells were seeded in 384-well white assay plates (Corning) at 15000 cells per well. Briefly, cells were washed with PBS (Life Technologies Europe BV) and dissociated by adding 2 mL TrypLE™ Select (Life Technologies Europe BV). After 5 min at 37° C., cells were resuspended in culture medium, counted using a ViCell XR cell counter (ViCell) and seeded in the 384-well plates.
Compounds were pre-diluted in PBS to a final concentration of […] and 1% DMSO and serially diluted in PBS 1% DMSO. For compound-cell incubation, medium in the 384 well plates was replaced with 30 μL of serially diluted compounds. After incubation at 37° C. for 1 hour the liquid was removed and plates were heated to 55° C. for 5 minutes and then transferred to ice for 5 minutes. After the cooling step, cells were lysed by adding 15 μL 1× alphaLISA-buffer (Perkin Elmer) containing anti-SMOX monoclonal antibody #2 and anti-SMOX Fab-fragment #33 mixture at a concentration of 5 and 0.5 nM respectively. After one hour at RT, 5 μL anti-6×His alphaLISA acceptor beads (50 mg/L, AL128C, Perkin Elmer) were added to the wells followed by an additional incubation of one hour at RT. Then 5 μL anti-rabbit IgG alpha donor beads (200 mg/L was added to the wells. After one hour incubation at RT the alpha signal was read using an alpha compatible reader. MDL75257 (M2949, Sigma) was used as positive control for compound-SMOX interaction. Compound-SMOX interaction is detected through the comparison of the high alpha signal of the negative control with the much lower signal of the wells that contain SMOX binding compounds.

T1 sequence (Q9NWM0 whole entry): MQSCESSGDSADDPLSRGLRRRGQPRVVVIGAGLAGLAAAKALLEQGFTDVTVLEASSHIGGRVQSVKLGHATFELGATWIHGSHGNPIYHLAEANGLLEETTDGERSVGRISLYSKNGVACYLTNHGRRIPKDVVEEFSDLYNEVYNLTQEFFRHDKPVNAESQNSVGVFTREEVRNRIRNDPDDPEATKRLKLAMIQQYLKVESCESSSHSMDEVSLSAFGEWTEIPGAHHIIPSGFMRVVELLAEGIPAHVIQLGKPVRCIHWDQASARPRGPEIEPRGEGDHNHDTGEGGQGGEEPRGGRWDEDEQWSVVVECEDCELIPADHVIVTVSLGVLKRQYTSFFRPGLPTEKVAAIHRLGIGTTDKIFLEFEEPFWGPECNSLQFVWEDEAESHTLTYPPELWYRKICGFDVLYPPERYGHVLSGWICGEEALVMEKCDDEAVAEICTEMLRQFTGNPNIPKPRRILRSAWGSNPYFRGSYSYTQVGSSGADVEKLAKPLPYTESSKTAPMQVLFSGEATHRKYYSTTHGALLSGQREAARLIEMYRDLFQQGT
hPAOX, sequence (Q6QHF9 whole entry): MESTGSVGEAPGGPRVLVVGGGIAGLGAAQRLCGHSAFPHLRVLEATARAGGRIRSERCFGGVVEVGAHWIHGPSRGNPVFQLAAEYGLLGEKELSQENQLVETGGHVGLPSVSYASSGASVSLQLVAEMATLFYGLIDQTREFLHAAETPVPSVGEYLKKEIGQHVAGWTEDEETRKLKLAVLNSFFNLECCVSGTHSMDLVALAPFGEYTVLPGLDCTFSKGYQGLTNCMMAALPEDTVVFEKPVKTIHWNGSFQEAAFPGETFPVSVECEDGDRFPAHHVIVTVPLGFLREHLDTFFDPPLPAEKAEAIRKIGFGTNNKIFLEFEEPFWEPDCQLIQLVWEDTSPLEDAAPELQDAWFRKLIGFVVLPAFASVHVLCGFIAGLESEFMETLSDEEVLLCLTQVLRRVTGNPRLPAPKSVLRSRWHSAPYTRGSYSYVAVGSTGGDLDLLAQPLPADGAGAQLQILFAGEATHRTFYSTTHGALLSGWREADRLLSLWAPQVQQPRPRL

Structure (SMILES) | IC50 (SMOX [1]) | IC50 (hPAOX) | SMOx % recovery CETSA (SMOX [2])
Cn1ccnc1CCCNC(=O)c1cc2nc(-c3ccccc3)cc(-c3ccccc3)n2n1 [Example 1, N-(3-(1-Methyl-1H-imidazol-2-yl)propyl)-5,7-diphenylpyrazolo[1,5-a]pyrimidine-2-carboxamide] | 46 nM | 397 nM | 12%
Cc1nccn1CCCNC(=O)c1cc2nc(-c3ccccc3)cc(-c3ccccc3)n2n1 [Example 2, N-(3-(2-Methyl-1H-imidazol-1-yl)propyl)-5,7-diphenylpyrazolo[1,5-a]pyrimidine-2-carboxamide] | 45 nM | 942 nM | 26%
O=C(NCCn1ccnc1)c1cc2nc(-c3ccccc3)cc(-c3ccccc3)n2n1 [Example 12, N-(2-(1H-Imidazol-1-yl)ethyl)-5,7-diphenylpyrazolo[1,5-a]pyrimidine-2-carboxamide] | 231 nM | 233 nM | 0%
CCN1CCC[C@@H]1CNC(=O)c1cc2nc(-c3ccccc3)cc(-c3ccccc3)n2n1 [Example 15, (R)—N-((1-Ethylpyrrolidin-2-yl)methyl)-5,7-diphenylpyrazolo[1,5-a]pyrimidine-2-carboxamide] | 192 nM | 6320 nM | 4%
CN(C)CCCNC(=O)c1cc2nc(-c3ccccc3)cc(-c3ccccc3)n2n1 [Example 18, N-(3-(Dimethylamino)propyl)-5,7-diphenylpyrazolo[1,5-a]pyrimidine-2-carboxamide] | 161 nM | 680 nM | 0%
O=C(NCCCn1ccnc1)c1cc2nc(-c3ccc(C(F)(F)F)cc3)cc(-c3ccccc3)n2n1 [Example 101, N-(3-(1H-imidazol-1-yl)propyl)-7-phenyl-5-(4-(trifluoromethyl)phenyl)pyrazolo[1,5-a]pyrimidine-2-carboxamide] | 72 nM | 181 nM | –
CN1CC(NC(=O)c2cc3nc(-c4ccccn4)cc(-c4ccccc4)n3n2)C1 [Example 102, N-(1-methylazetidin-3-yl)-7-phenyl-5-(pyridin-2-yl)pyrazolo[1,5-a]pyrimidine-2-carboxamide] | 1550 nM | 10000 nM | –
CN1CC(NC(=O)c2cc3nc(-c4ccccc4C(F)(F)F)cc(-c4ccccc4)n3n2)C1 [Example 103, N-(1-methylazetidin-3-yl)-7-phenyl-5-(2-(trifluoromethyl)phenyl)pyrazolo[1,5-a]pyrimidine-2-carboxamide] | 3120 nM | 547 nM | –
CN1CC(NC(=O)c2cc3nc(-c4ccccc4F)cc(-c4ccccc4)n3n2)C1 [Example 104, 5-(2-fluorophenyl)-N-(1-methylazetidin-3-yl)-7-phenylpyrazolo[1,5-a]pyrimidine-2-carboxamide] | 1290 nM | 1400 nM | –
CN1CC(NC(=O)c2cc3nc(-c4cccc(F)c4)cc(-c4ccccc4)n3n2)C1 [Example 105, 5-(3-fluorophenyl)-N-(1-methylazetidin-3-yl)-7-phenylpyrazolo[1,5-a]pyrimidine-2-carboxamide] | 114 nM | 666 nM | –
CN1CC(NC(=O)c2cc3nc(-c4ccc(F)cc4)cc(-c4ccccc4)n3n2)C1 [Example 106, 5-(4-fluorophenyl)-N-(1-methylazetidin-3-yl)-7-phenylpyrazolo[1,5-a]pyrimidine-2-carboxamide] | 164 nM | 485 nM | –
O=C(NCCCn1ccnc1)c1cc2nc(-c3ccccc3)cc(C3CCCC3)n2n1 [Example 108, N-(3-(1H-imidazol-1-yl)propyl)-7-cyclopentyl-5-phenylpyrazolo[1,5-a]pyrimidine-2-carboxamide] | 305 nM | 840 nM | –
O=C(NCCCn1ccnc1)c1cc2nc(-c3ccccc3)cc(C3CCC3)n2n1 [Example 109, N-(3-(1H-imidazol-1-yl)propyl)-7-cyclobutyl-5-phenylpyrazolo[1,5-a]pyrimidine-2-carboxamide] | 956 nM | 470 nM | –
O=C(NCCCn1ccnc1)c1cc2nc(-c3ccccc3)cc(C3CCCO3)n2n1 (stereo not drawn) [Example 110, N-(3-(1H-imidazol-1-yl)propyl)-5-phenyl-7-(tetrahydrofuran-2-yl)pyrazolo[1,5-a]pyrimidine-2-carboxamide] | 1750 nM | 3070 nM | –
CC(C)Cc1cc(-c2ccccc2)nc2cc(C(=O)NCCCn3ccnc3)nn12 [Example 112, N-(3-(1H-imidazol-1-yl)propyl)-7-isobutyl-5-phenylpyrazolo[1,5-a]pyrimidine-2-carboxamide] | 1630 nM | 1940 nM | –
O=C(NCCCn1ccnc1)c1cc2nc(-c3ccccc3)cc(C3CC3)n2n1 [Example 113, N-(3-(1H-imidazol-1-yl)propyl)-7-cyclopropyl-5-phenylpyrazolo[1,5-a]pyrimidine-2-carboxamide] | 1200 nM | 2290 nM | –
O=C(NCCCn1ccnc1)c1cc2nc(-c3ccccc3)cc(C3CCCCN3)n2n1 (stereo not drawn) [Example 114, N-(3-(1H-imidazo-1-yl)propyl)-5-phenyl-7-(piperidin-2.yl)pyrazolo[1,5-a]pyrimidine-2-carboxamide] | 776 nM | 8460 nM | –
O=C(NC1CNC1)c1cc2nc(-c3ccccc3)cc(-c3ccccc3)n2n1 [Example 115, N-(azetidin-3-yl)-5,7-diphenylpyrazolo[1,5-a]pyrimidine-2-carboxamide] | 282 nM | 213 nM | –
NCCCNC(=O)c1cc2nc(-c3ccccc3)cc(-c3ccccc3)n2n1 [Example 116, N-(3-aminopropyl)-5,7-diphenylpyrazolo[1,5-a]pyrimidine-2-carboxamide] | 296 nM | 119 nM | –
O=C(NCC1CCCN1)c1cc2nc(-c3ccccc3)cc(-c3ccccc3)n2n1 (stereo not drawn) [Example 117, 5,7-diphenyl-(pyrrolidin-2-ylmethyl)pyrazolo[1,5-a]pyrimidine-2-carboxamide] | 142 nM | 197 nM | –
CNCCCNC(=O)c1cc2nc(-c3ccccc3)cc(-c3ccccc3)n2n1 [Example 118, N-(3-(methylamino)propyl)-5,7-diphenylpyrazolo[1,5-a]pyrimidine-2-carboxamide] | 230 nM | 103 nM | –
NCCNC(=O)c1cc2nc(-c3ccccc3)cc(-c3ccccc3)n2n1 [Example 119, N-(2-aminoethyl)-5,7-diphenylpyrazolo[1,5-a]pyrimidine-2-carboxamide hydrochloride] | 801 nM | 2400 nM | –
CC(CN)CNC(=O)c1cc2nc(-c3ccccc3)cc(-c3ccccc3)n2n1 (stereo not drawn) [Example 120, N-(3-amino-2-methylpropyl)-5,7-diphenylpyrazolo[1,5-a]pyrimidine-2-carboxamide hydrochloride] | 582 nM | 1220 nM | –
O=C(NCC1CCNC1)c1cc2nc(-c3ccccc3)cc(-c3ccccc3)n2n1 (stereo not drawn) [Example 121, 5,7-diphenyl-N-(pyrrolidin-3-ylmethyl)pyrazolo[1,5-a]pyrimidine-2-carboxamide] | 416 nM | 641 nM | –
O=C(NCCN1CCOCC1)c1cc2nc(-c3ccccc3)cc(-c3ccccc3)n2n1 [Example 122, N-(2-morpholinoethyl)-5,7-diphenylpyrazolo[1,5-a]pyrimidine-2-carboxamide] | 20600 nM | > 31200 nM | –
Cc1cc(-c2ccccc2)nc2cc(C(=O)NCCCn3ccnc3)nn12 [Example 123, N-(3-(1H-imidazol-1-yl)propyl)-7-methyl-5-phenylpyrazolo[1,5-a]pyrimidine-2-carboxamide] | 9770 nM | 4040 nM | –
